Source: patent US20250136722A1, “CYTOTOXICITY TARGETING CHIMERAS” (GLAXOSMITHKLINE INTELLECTUAL PROPERTY DEVELOPMENT LIMITED, priority 2021, published 2025)
Values joined by “and” are separate entries in the source; they are usually repeats but may differ in a detail not shown here. Equal entries are not always repeated.

How the values were obtained:
[1] = target: Anti-cotinine antibody (SEQ ID NO: 11 / SEQ ID NO: 12, rabbit variable region with human IgG1 Fc domain); experiment: Binding of anti-cotinine antibody to ARM compounds by SPR, Biacore T200, 37° C. (Example 202); conditions: pH 7.4, rabbit variable region/human IgG1 Fc antibody captured on protein A
Method: Anti-cotinine antibodies having a heavy chain sequence of SEQ ID NO: 11 and a light chain sequence of SEQ ID NO: 12 (rabbit variable region with human IgG1 Fc domain containing a DE mutation (S239D/1332E)) were captured on one or more flow cells of a protein A sensor chip (Cytiva) using a Biacore T200 while reserving flow cell 1 as a reference. Following capture, a 3000 second wait step was included to reduce drift during compound analysis. ARM compounds of Formula (I) were then injected at 100 μL/min with 200 and 2000 second association and dissociation times. The entire experiment was run at 37° C. with running buffer containing 10 mM HEPES pH 7.4, 150 mM NaCl, 0.005% P20 and 1% DMSO. ARM compounds of Formula (I) were titrated with a top concentration of 200 nM using a 3-fold 5-point dilution series and a corresponding 5-injection buffer cycle was run for blank subtraction. Data were double referenced by subtracting the response of the reference flow cell from that of the antibody-containing flow cell and subsequently subtracting the referenced blank sensorgrams. Following compound analysis, the surface was regenerated using a 30 second injection of pH 1.5 glycine at a flow rate of 30 μL/min after which antibody was re-captured. The experiment was run using Biacore T200 control software and evaluated using Biacore T200 Evaluation software. Curves were fit with a 1:1 kinetic binding model to obtain kon(1/Ms), koff(1/s), Kd (M) determined as koff/kon, and residence time determined as 1/koff. (s).
Anti-cotinine antibody was tested for binding to ARMs compounds of Formula (I) of the invention in the above assay in or more experimental runs and the results are shown in Table 5 below. Affinity is reported as a pKd value. The pKd value is the negative log of the Kd value, wherein the Kd value is the dissociation constant measured in molar (M) as noted above. For compounds tested in more than one experimental run, the pKd value is reported as an average.

[2] = target: T1, CHOK1 cells engineered to overexpress human CCR2 (Homo sapiens, UniProt P41597); experiment: Antibody dependent cellular cytotoxicity (ADCC) reporter assay (Example 199); format: cell-based; conditions: with anti-cotinine antibody SEQ ID NO: 11/12; CHOK1-human CCR2 target cells, Jurkat FcγRIIIa NFAT-luciferase reporter cells; 12-18 hours; read-out: ADCC Reporter Assay pEC50 (converted)
T1 construct: expressed in transfected cells; host or cells: CHOK1 cells
Method in brief: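 Potency is reported as pEC50 from a nonlinear fit, averaged over runs, using luciferase signal divided by that of compound-free wells. The readout comes from NFAT-luciferase Jurkat cells expressing FcγRIIIa, mixed for 12–18 h with human CCR2-overexpressing CHOK1 cells, 1 pM–10 μM ARM compound and 0.01–200 μg/mL Fc-enhanced anti-cotinine IgG1.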

Compound | pKd of Antibody for ARM Compound of Formula (I) [1] | EC50 [2]
CC(C)N(C)[C@@H]1CC[C@H](N2CC[C@H](Nc3ncnc4ccc(C(F)(F)F)cc34)C2=O)[C@H](NC(=O)[C@H]2CC[C@@H](NC(=O)CNC(=O)CCOCCOCCNC(=O)[C@H]3CC(=O)N(C)[C@@H]3c3cccnc3)CC2)C1 [Example 83] | 9.302 | 0.269 nM
CC(C)N(C)[C@@H]1CC[C@H](N2CC[C@H](Nc3ncnc4ccc(C(F)(F)F)cc34)C2=O)[C@H](Nc2c(NCCOCCOCCOCCOCCOCCNC(=O)[C@H]3CC(=O)N(C)[C@@H]3c3cccnc3)c(=O)c2=O)C1 [Example 85, (2S,3S)-N-(17-((2-(((1R,2S,5R)-5-(Isopropyl(methyl)amino)-2-((S)-2-oxo-3-((6-(trifluoromethyl)quinazolin-4-yl)amino)pyrrolidin-1-yl)cyclohexyl)amino)-3,4-dioxocyclobut-1-en-1-yl)amino)-3,6,9,12,15-pentaoxaheptadecyl)-1-methyl-5-oxo-2-(pyridin-3-yl)pyrrolidine-3-carboxamide] | 9.6885 | 8.24 nM
CC(C)N(C)[C@@H]1CC[C@H](N2CC[C@H](Nc3ncnc4ccc(C(F)(F)F)cc34)C2=O)[C@H](NC(=O)[C@H]2CC[C@@H](NC(=O)CCOCCNC(=O)COCCNC(=O)[C@H]3CC(=O)N(C)[C@@H]3c3cccnc3)CC2)C1 [Example 98, (2S,3S)-N-(2-(2-((2-(3-(((1S,4s)-4-(((1R,2S,5R)-5-(Isopropyl(methyl)amino)-2-((S)-2-oxo-3-((6-(trifluoromethyl)quinazolin-4-yl)amino)pyrrolidin-1-yl)cyclohexyl)carbamoyl)cyclohexyl)amino)-3-oxopropoxy)ethyl)amino)-2-oxoethoxy)ethyl)-1-methyl-5-oxo-2-(pyridin-3-yl)pyrrolidine-3-carboxamide] | 9.0095 | 1 nM and 0.631 nM
CN1C(=O)C[C@H](C(=O)NCCOCC(=O)NCCOCC(=O)NCCOCCC(=O)N[C@@H]2C[C@H](NC(C)(C)C)CC[C@@H]2N2CC[C@H](Nc3ncnc4ccc(C(F)(F)F)cc34)C2=O)[C@H]1c1cccnc1 [Example 103] | 9.0985 | 1.56 nM and 0.577 nM
CC(C)N(C)[C@@H]1CC[C@H](N2CC[C@H](Nc3ncnc4ccc(C(F)(F)F)cc34)C2=O)[C@H](NC(=O)COCCNC(=O)CCOCCNC(=O)COCCNC(=O)[C@H]2CC(=O)N(C)[C@@H]2c2cccnc2)C1 [Example 104, (2S,3S)-N-(18-(((1R,2S,5R)-5-(Isopropyl(methyl)amino)-2-((S)-2-oxo-3-((6-(trifluoromethyl)quinazolin-4-yl)amino)pyrrolidin-1-yl)cyclohexyl)amino)-5,12,18-trioxo-3,9,16-trioxa-6,13-diazaoctadecyl)-1-methyl-5-oxo-2-(pyridin-3-yl)pyrrolidine-3-carboxamide] | 9.051 | 2.28 nM
CC(C)N(C)[C@@H]1CC[C@H](N2CC[C@H](Nc3ncnc4ccc(C(F)(F)F)cc34)C2=O)[C@H](NC(=O)CCOCCNC(=O)[C@H]2CC[C@H](NC(=O)COCCNC(=O)[C@H]3CC(=O)N(C)[C@@H]3c3cccnc3)CC2)C1 [Example 108] | 8.9855 | 0.0501 nM
CC(C)N(C)[C@@H]1CC[C@H](N2CC[C@H](Nc3ncnc4ccc(C(F)(F)F)cc34)C2=O)[C@H](NC(=O)COCCNC(=O)[C@H]2CC[C@@H](NC(=O)CCOCCNC(=O)[C@H]3CC(=O)N(C)[C@@H]3c3cccnc3)CC2)C1 [Example 109] | 8.951 | 0.17 nM
CC(C)N(C)[C@@H]1CC[C@H](N2CC[C@H](Nc3ncnc4ccc(C(F)(F)F)cc34)C2=O)[C@H](NC(=O)[C@H]2CC[C@H](NC(=O)CCCOCCCCOCCNC(=O)[C@H]3CC(=O)N(C)[C@@H]3c3cccnc3)CC2)C1 [Example 121, (2S,3S)-N-(2-(4-(4-(((1R,4r)-4-(((1R,2S,5R)-5-(Isopropyl(methyl)amino)-2-((S)-2-oxo-3-((6-(trifluoromethyl)quinazolin-4-yl)amino)pyrrolidin-1-yl)cyclohexyl)carbamoyl)cyclohexyl)amino)-4-oxobutoxy)butoxy)ethyl)-1-methyl-5-oxo-2-(pyridin-3-yl)pyrrolidine-3-carboxamide] | 9.332 | 5.28 nM

The next lines start with results.

pKd of Antibody for ARM Compound of Formula (I) [1] | Compound | EC50 [2]
8.9085 | CC(C)N(C)[C@@H]1CC[C@H](N2CC[C@H](Nc3ncnc4ccc(C(F)(F)F)cc34)C2=O)[C@H](NC(=O)CCOCCNC(=O)[C@H]2CC[C@@H](NC(=O)CCOCCNC(=O)[C@H]3CC(=O)N(C)[C@@H]3c3cccnc3)CC2)C1 [Example 110] | 0.167 nM
9.343 | CC(C)N(C)[C@@H]1CC[C@H](N2CC[C@H](Nc3ncnc4ccc(C(F)(F)F)cc34)C2=O)[C@H](NC(=O)[C@H]2CC[C@@H](NC(=O)CCO[C@H]3CC[C@H](OCCNC(=O)[C@H]4CC(=O)N(C)[C@@H]4c4cccnc4)CC3)CC2)C1 [Example 112, (2S,3S)-N-(2-(((1S,4S)-4-(3-(((1S,4S)-4-(((1R,2S,5R)-5-(Isopropyl(methyl)amino)-2-((S)-2-oxo-3-((6-(trifluoromethyl)quinazolin-4-yl)amino)pyrrolidin-1-yl)cyclohexyl)carbamoyl)cyclohexyl)amino)-3-oxopropoxy)cyclohexyl)oxy)ethyl)-1-methyl-5-oxo-2-(pyridin-3-yl)pyrrolidine-3-carboxamide] | 0.398 nM
9.767 | CC(C)N(C)[C@@H]1CC[C@H](N2CC[C@H](Nc3ncnc4ccc(C(F)(F)F)cc34)C2=O)[C@H](NC(=O)[C@H]2CC[C@H](NC(=O)CCO[C@H]3CC[C@H](OCCNC(=O)[C@H]4CC(=O)N(C)[C@@H]4c4cccnc4)CC3)CC2)C1 [Example 113] | 4.82 nM and 8.17 nM
9.363 | CC(C)N(C)[C@@H]1CC[C@H](N2CC[C@H](Nc3ncnc4ccc(C(F)(F)F)cc34)C2=O)[C@H](NC(=O)[C@H]2C[C@@H](NC(=O)CCO[C@H]3CC[C@H](OCCNC(=O)[C@H]4CC(=O)N(C)[C@@H]4c4cccnc4)CC3)C2)C1 [Example 115] | 0.408 nM and 0.305 nM
9.1735 | CC(C)N(C)[C@@H]1CC[C@H](N2CC[C@H](Nc3ncnc4ccc(C(F)(F)F)cc34)C2=O)[C@H](NC(=O)CCOCCOCCNC(=O)NCCOCCOCCNC(=O)[C@H]2CC(=O)N(C)[C@@H]2c2cccnc2)C1 [Example 119, (2S,3S)-N-(20-(((1R,2S,5R)-5-(Isopropyl(methyl)amino)-2-((S)-2-oxo-3-((6-(trifluoromethyl)quinazolin-4-yl)amino)pyrrolidin-1-yl)cyclohexyl)amino)-10,20-dioxo-3,6,14,17-tetraoxa-9,11-diazaicosyl)-1-methyl-5-oxo-2-(pyridin-3-yl)pyrrolidine-3-carboxamide] | 1.58 nM
9.0865 | CC(C)N(C)[C@@H]1CC[C@H](N2CC[C@H](Nc3ncnc4ccc(C(F)(F)F)cc34)C2=O)[C@H](NC(=O)CCNC2CCC3(CC2)CCN(CCCNC(=O)[C@H]2CC(=O)N(C)[C@@H]2c2cccnc2)CC3)C1 [Example 138, (2S,3S)-N-(3-(9-((3-(((1R,2S,5R)-5-(Isopropyl(methyl)amino)-2-((S)-2-oxo-3-((6-(trifluoromethyl)quinazolin-4-yl)amino)pyrrolidin-1-yl)cyclohexyl)amino)-3-oxopropyl)amino)-3-azaspiro[5.5]undecan-3-yl)propyl)-1-methyl-5-oxo-2-(pyridin-3-yl)pyrrolidine-3-carboxamide] | 3.98 nM
9.275 | CC(C)N(C)[C@@H]1CC[C@H](N2CC[C@H](Nc3ncnc4ccc(C(F)(F)F)cc34)C2=O)[C@H](NC(=O)COCCNC(=O)COCCOCCNC(=O)CCNC(=O)[C@H]2CC(=O)N(C)[C@@H]2c2cccnc2)C1 [Example 143, (2S,3S)-N-(1-(((1R,2S,5R)-5-(Isopropyl(methyl)amino)-2-((S)-2-oxo-3-((6-(trifluoromethyl)quinazolin-4-yl)amino)pyrrolidin-1-yl)cyclohexyl)amino)-1,7,16-trioxo-3,9,12-trioxa-6,15-diazaoctadecan-18-yl)-1-methyl-5-oxo-2-(pyridin-3-yl)pyrrolidine-3-carboxamide] | 3.24 nM
